Measurements reported in patent publication US6867207B2, “IL-5 inhibiting 6-azauracil derivatives” (Janssen Pharmaceutica N.V., priority 1997, dated 2005).

Tested on: IL-5 production
Assay: In vitro inhibition of IL-5 production in human blood (phytohemagglutinin-stimulated whole blood, ELISA)
Assay type: cell-based
Settings: test dose 1×10^−5 M (values marked *), 48 hours, read-out: % inh. (percentage inhibition of IL-5 production), marked with *
How it was run: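 Heparinised blood from healthy male donors, diluted threefold in RPMI 1640, preincubated 60 min at 37° C with compound (0.02% DMSO vehicle), then stimulated with 2 μg/mL phytohemagglutinin for 48 h. Supernatant IL-5 measured by ELISA; percentage inhibition at 1×10^−6 M or 1×10^−5 M.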

SMILES	inhibition at 10 µM [%]
O=c1cnn(-c2ccc(C(c3ccc(Cl)cc3)N3CCC(O)CC3)c(Cl)c2)c(=O)[nH]1 (racemic) [Compound 119, (±)-2-[3-chloro-4-[(4-chlorophenyl)(4-hydroxy-1-piperidinyl)methyl]phenyl]-1,2,4-triazine-3,5(2H,4H)-dione]	72
O=c1cnn(-c2ccc(C(NCc3ncc[nH]3)c3ccc(Cl)cc3)c(Cl)c2)c(=O)[nH]1 (racemic) [Compound 50, (±)-2-[3-chloro-4-[(4-chlorophenyl)[(1H-imidazol-2-ylmethyl)amino]methyl]phenyl]-1,2,4-triazine-3,5(2H,4H)-dione]	20

Same assay, conditions: test dose 1×10^−6 M, 48 hours

SMILES	% inh. (percentage inhibition of IL-5 production) [%]
CCOC(=O)N1CCN(c2ccnc(SC(c3ccc(Cl)cc3)c3c(Cl)cc(-n4ncc(=O)[nH]c4=O)cc3Cl)n2)CC1 (racemic) [Compound 352]	85
Cl.O=c1cnn(-c2cc(Cl)c(C(c3ccc(Cl)cc3)c3nc(C4CCNCC4)cs3)c(Cl)c2)c(=O)[nH]1 (racemic) [Compound 230, (±)-2-[3,5-dichloro-4-[(4-chlorophenyl)[4-(4-piperidinyl)-2-thiazolyl]methyl]phenyl]-1,2,4-triazin-3,5-(2H,4H)-dione monohydrochloride]	79
Cc1nc(-c2ccccc2)c(C(c2ccc(Cl)cc2)c2ccc(-n3ncc(=O)[nH]c3=O)cc2)s1 (racemic) [Compound 146]	83
O=c1cnn(-c2cc(Cl)c(C(c3ccc(Cl)cc3)c3nc(-c4cccc(C(F)(F)F)c4)cs3)c(Cl)c2)c(=O)[nH]1 (racemic) [Comp 20]	70
O=c1cnn(-c2ccc(C(SC3=NCCS3)c3ccc(Cl)cc3)c(Cl)c2)c(=O)[nH]1 (racemic) [Compound 78]	70
Cc1nc(-c2cccc(F)c2)c(C(c2ccc(Cl)cc2)c2ccc(-n3ncc(=O)[nH]c3=O)cc2Cl)s1 (racemic) [Compound 143]	81
O=c1cnn(-c2cc(Cl)c(C(Sc3nc4cccnc4s3)c3ccc(Cl)c(C(F)(F)F)c3)c(Cl)c2)c(=O)[nH]1 (stereo not drawn) [Compound 382]	95
O=c1cnn(-c2cc(Cl)c(C(c3ccc(Cl)cc3)c3nc(-c4ccc(Cl)c(Cl)c4)cs3)c(Cl)c2)c(=O)[nH]1 (racemic) [Comp 28]	73
Cc1cc(C(c2nc(-c3ccccc3)cs2)c2c(Cl)cc(-n3ncc(=O)[nH]c3=O)cc2Cl)ccc1Cl (racemic) [Comp 269]	90
CCOC(=O)N1CCC(NC(=S)Nc2cccc(-c3nnc(C(c4ccc(Cl)cc4)c4c(Cl)cc(-n5ncc(=O)[nH]c5=O)cc4Cl)o3)c2)CC1 (racemic) [Compound 220]	25
CCOC(=O)c1nnc(C(c2ccc(Cl)cc2)c2c(Cl)cc(-n3ncc(=O)[nH]c3=O)cc2Cl)o1 (racemic) [Compound 186]	8
CCOC(=O)c1sc(C(c2ccc(Cl)cc2)c2c(Cl)cc(-n3ncc(=O)[nH]c3=O)cc2Cl)nc1-c1ccccc1 (racemic) [Comp 29]	95
O=c1cnn(-c2ccc(C(SCc3ccco3)c3ccc(Cl)cc3)c(Cl)c2)c(=O)[nH]1 (racemic) [Compound 64]	64
Cc1cc(C(C)(c2nc(-c3ccccc3)cs2)c2ccc(-n3ncc(=O)[nH]c3=O)cc2Cl)ccc1Cl (racemic) [Comp 247]	80
CC(C)c1sc(C(c2ccc(Cl)cc2)c2c(Cl)cc(-n3ncc(=O)[nH]c3=O)cc2Cl)nc1-c1ccccc1 (racemic) [Compound 241, (±)-2-[3,5-dichloro-4-[(4-chlorophenyl)[5-(1-methylethyl)-4-phenyl-2-thiazolyl]methyl]-phenyl-1,2,4-triazin-3,5(2H,4H)-dione]	95
Cc1nc(C(c2ccc(Cl)cc2)c2c(Cl)cc(-n3ncc(=O)[nH]c3=O)cc2Cl)sc1-c1ccccc1 (racemic) [Comp 248]	91
O=c1cnn(-c2cc(Cl)c(C(Sc3cnccn3)c3ccc(Cl)c(C(F)(F)F)c3)c(Cl)c2)c(=O)[nH]1 (racemic) [Compound 401]	92
CN(C)Cc1csc(C(c2ccc(Cl)cc2)c2c(Cl)cc(-n3ncc(=O)[nH]c3=O)cc2Cl)n1 (racemic) [Comp 240]	54
O=c1cnn(-c2cc(Cl)c(C(Sc3nccc(N4CCOCC4)n3)c3ccc(Cl)cc3)c(Cl)c2)c(=O)[nH]1 (racemic) [Compound 349]	87
O=c1cnn(-c2ccc(C(C3=C(c4ccccc4)SC4=NCCN43)c3ccc(Cl)cc3)c(Cl)c2)c(=O)[nH]1 (stereo not drawn) [Comp 433]	53
O=c1cnn(-c2cc(Cl)c(C(c3ccc(Cl)cc3)c3csc(-c4cccc(Cl)c4)n3)c(Cl)c2)c(=O)[nH]1 (racemic) [Compound 371]	88
O=C(c1ccccc1)c1sc(C(c2ccc(Cl)cc2)c2c(Cl)cc(-n3ncc(=O)[nH]c3=O)cc2Cl)nc1-c1ccccc1 (racemic) [Comp 273]	77
O=c1cnn(-c2cc(Cl)c(C(c3ccc(Cl)cc3)c3ncc(-c4ccccc4)s3)c(Cl)c2)c(=O)[nH]1 (racemic) [Comp 267]	81

SMILES	% inh. (percentage inhibition of IL-5 production) [%]
COCCNC(c1ccc(Cl)cc1)c1ccc(-n2ncc(=O)[nH]c2=O)cc1Cl (racemic) [Compound 41]	11
O=c1cnn(-c2ccc(C(Sc3nccs3)c3ccc(Cl)cc3)c(Cl)c2)c(=O)[nH]1 (racemic) [Compound 63]	68
O=c1cnn(-c2ccc(C(c3ccc(Cl)cc3)c3ncc(-c4ccccc4)o3)c(Cl)c2)c(=O)[nH]1 (racemic) [Comp 103]	63
CCOC(=O)Cc1nnc(C(c2ccc(Cl)cc2)c2c(Cl)cc(-n3ncc(=O)[nH]c3=O)cc2Cl)o1 (racemic) [Compound 176]	3
O=c1cnn(-c2cc(Cl)c(C(c3ccc(Cl)cc3)c3nnc(-c4ccccc4)s3)c(Cl)c2)c(=O)[nH]1 (stereo not drawn) [Comp 427]	72
Cc1sc(C(c2ccc(Cl)cc2)c2c(Br)cc(-n3ncc(=O)[nH]c3=O)cc2Br)nc1-c1ccccc1 (racemic) [Comp 330]	94
CN(C)c1cccc(-c2nnc(C(c3ccc(Cl)cc3)c3c(Cl)cc(-n4ncc(=O)[nH]c4=O)cc3Cl)o2)c1 (racemic) [Compound 182]	75
O=c1cnn(-c2cc(Cl)c(C(c3ccc(Cl)cc3)c3nnc(-c4cccc(F)c4)o3)c(Cl)c2)c(=O)[nH]1 (racemic) [Compound 160]	91
CC(c1ccc(Cl)c(Cl)c1)(c1nc(-c2ccccc2)c(-c2ccccc2)s1)c1c(Cl)cc(-n2ncc(=O)[nH]c2=O)cc1Cl (racemic) [Comp 228]	81
O=c1cnn(-c2cc(Cl)c(C(c3ccc(Cl)cc3)c3nc(-c4ccccc4)c(CNC(=S)Nc4ccccc4)s3)c(Cl)c2)c(=O)[nH]1 (racemic) [Compound 331, (±)-N-[[2-[(4-chlorophenyl)[2,6-dichloro-(4,5-dihydro-3,5-dioxo-1,2,4-triazin-2(3H)-yl)phenyl]methyl]4-phenyl-5-thiazolyl]methyl]-N′-phenyl-thiourea]	95
Cc1sc(-c2ccccc2)nc1C(c1ccc(Cl)cc1)c1c(Cl)cc(-n2ncc(=O)[nH]c2=O)cc1Cl (racemic) [Compound 365]	88
CCOC(=O)c1sc(C(c2ccc(Cl)cc2)c2c(Cl)cc(-n3ncc(=O)[nH]c3=O)cc2Cl)nc1-c1ccccc1F (racemic) [Comp 285]	89
COc1ccccc1-c1nnc(C(c2ccc(Cl)cc2)c2c(Cl)cc(-n3ncc(=O)[nH]c3=O)cc2Cl)o1 (racemic) [Compound 171]	59
CCOC(=O)N1CCC(c2nnc(C(c3ccc(Cl)cc3)c3c(Cl)cc(-n4ncc(=O)[nH]c4=O)cc3Cl)o2)CC1 (racemic) [Compound 191]	19
Nc1ccc(SC(c2ccc(Cl)c(C(F)(F)F)c2)c2c(Cl)cc(-n3ncc(=O)[nH]c3=O)cc2Cl)cc1 (stereo not drawn) [Compound 393]	93
CN1CCN(Cc2sc(C(c3ccc(Cl)cc3)c3c(Cl)cc(-n4ncc(=O)[nH]c4=O)cc3Cl)nc2-c2ccccc2)CC1 (racemic) [Comp 302]	87
O=c1cnn(-c2cc(Cl)c(C(c3ccc(Cl)cc3)c3nc(-c4ccccc4)c(Cc4ccccc4)s3)c(Cl)c2)c(=O)[nH]1 (racemic) [Comp 249]	80
O=c1cnn(-c2ccc(C(c3ccc(Cl)cc3)c3ccccn3)c(Cl)c2)c(=O)[nH]1 (stereo not drawn) [Comp 114]	40
Cl.O=c1cnn(-c2ccc(C(NCCc3ccco3)c3ccc(Cl)cc3)c(Cl)c2)c(=O)[nH]1 (racemic) [Compound 43]	37
O=c1cnn(-c2cc(Cl)c(C(c3ccc(Cl)c(C(F)(F)F)c3)c3nnc(-c4ccccc4)o3)c(Cl)c2)c(=O)[nH]1 (racemic) [Compound 165]	80
O=c1cnn(-c2cc(Cl)c(C(c3ccc(Cl)cc3)c3nc(-c4cccc(Cl)c4Cl)cs3)c(Cl)c2)c(=O)[nH]1 (racemic) [Comp 252]	80
O=c1cnn(-c2ccc(C(SCc3ccc(Cl)cc3)c3ccc(Cl)cc3)c(Cl)c2)c(=O)[nH]1 (racemic) [Compound 67]	69
O=C(NC1CCN(Cc2ccccc2)CC1)c1sc(C(c2ccc(Cl)cc2)c2c(Cl)cc(-n3ncc(=O)[nH]c3=O)cc2Cl)nc1-c1ccccc1 (racemic) [Comp 305]	51
